In patent publication US8206704B2, “Use of GCC ligands” (priority 2003, dated 2012):
Entries after “also recorded” stand apart in the source; their conditions may differ. No end group written: not given here.

Key:
[1] = tested on: T84 cells; experiment: DNA synthesis ([methyl-3H]thymidine incorporation), tumor cell proliferation; type: cell-based, human; conditions: for Effect of agent on inhibition of proliferation induced by ST: with ST, 1 μM KT5823, 50 μM RP8pCPT-cGMP, 0.5 μM KT5720, 50 μM RP-cAMPs, 10 μM milrinone, 200 μM L-DLT, 20 μM BAPTA, 50 μM DTR, 1 μM PHE, 100 nM CTX
Procedure: T84 (passages 50-70) and SW480 (passage 100-120) human colon carcinoma cells, obtained from the American Type Culture Collection, were maintained at 37° C. (5% CO2) in DMEM/F12 containing 2.5 mM L-glutamine, 100 units/ml penicillin, 100 μg/ml streptomycin, and 10% (vol/vol) FBS.
Exponentially growing cancer cells (˜60% confluent in 96-well plates) were synchronized by serum starvation in Eagle's minimal essential medium (EMEM) for 48 h, followed by proliferative induction with 10 mM L-glutamine (in EMEM) for 24 h. ST and other agents were added to cells 15 min before 0.2 μCi per well (1 Ci=37 GBq) of [methyl-3H]thymidine, which was added for 3 h, followed by quantification of [3H]thymidine incorporation into DNA (15).

[2] = tested on: human colorectal cancer cells; experiment: Actin cytoskeleton organization (confocal microscopy, cell spreading); type: cell-based; conditions: ST 1 micromolar, confocal microscopy
From the text: ST prevented human colorectal cancer cells from organizing their actin cytoskeleton. […] The latter is a functional readout of the ability of cells to organize actin. Human colorectal cancer cells treated with ST cannot spread their bodies out in vitro. An inability to organize their actin cytoskeletons will prevent these cells from being able to migrate through tissues to metastasize.

[3] = tested on: matrix metalloproteinase 9 release from human colorectal cancer cells; experiment: Release of matrix metalloproteinase 9 (MMP 9 activity, western blot); type: cell-based; conditions: ST 1 micromolar
From the text: Preventing the secretion of this digestive enzyme will inhibit the ability of these tumor cells to invade the wall of the intestine. […] ST did this at a concentration of 1 micromolar.

[4] = target: PKG-I and -II; conditions: cited from earlier work
[5] = target: cAMP-dependent protein kinase I and II; conditions: refs. 50 and 51; cited from earlier work
[6] = tested on: human T84 colon cancer cells; experiment: Perforated whole-cell patch-clamp current measurements; type: cell-based; conditions: for Induction of L-DLT-sensitive membrane current: 500 nM ST, 2.5 mM 8-br-cGMP
Procedure: The perforated mode of the whole-cell patch-clamp recording was applied to human T84 colon cancer cells. Membrane potential was controlled through the electrical access obtained by membrane perforation induced by amphotericin B (9, 10). The pipette solution supplemented by amphotericin B ([…]) contained: 140 mM KCl, 1 mM MgCl2, 5 mM EGTA, and 20 mM Hepes-KOH (pH 7.3). The bath solution contained (in mM): 136.5 mM NaCl, 5.4 mM KCl, 1.8 mM CaCl2, 0.5 mM MgCl2, 5.5 mM glucose, and 5 mM Hepes-NaOH (pH 7.4). Voltage-clamp recordings were performed with an Axopatch 1-C patch-clamp amplifier (Axon Instruments, Foster City, Calif.) at 31±1° C. using an HCC-100 temperature controller (Dagan Instruments, Minneapolis; ref. 19).

[7] = tested on: T84 cells; experiment: 45Ca2+ transport (calcium influx); type: cell-based, human; conditions: ST 1 μM, 20 min; 8-br-cGMP 5 mM, 40 min
Procedure: Exponentially growing T84 cells (40-80% confluent in 24-well plates) were incubated in media (S-MEM, Life Technologies, Rockville, Md.) containing low (300 μM) CaCl2 to maximize the signal-to-noise ratio for L-cis-diltiazem (L-DLT)-sensitive 45Ca2+ transport determinations. Cells were treated with ST, 8-br-cGMP, and/or L-DLT for the indicated times, followed by the addition of 1 μCi per well 45Ca2+ for the last 15 min. Incubations were terminated by washing four times in cold PBS buffer (145 mM NaCl/5 mM KCl/1 mM MgCl2/10 mM glucose/5 mM Hepes, pH 7.4) containing 0.1 mM EGTA, cells were solubilized with cold NaOH (0.1 M), and radioactivity was quantified in 100-μl aliquots.

[8] = tested on: human T84 colon cancer cells; experiment: Perforated whole-cell patch-clamp current measurements; type: cell-based; conditions: Ca-free solution, n=5
[9] = tested on: T84 human colon carcinoma cells; experiment: Inhibition of proliferation of cancer cells; type: cell-based; conditions: after exposure
[10] = tested on: Caco 2 human colon carcinoma cells; experiment: Inhibition of proliferation of cancer cells; type: cell-based; conditions: after exposure

For `Cc1[nH]c(=O)c(C#N)cc1-c1ccncc1` [milrinone], the “Effect of agent on inhibition of proliferation induced by ST” value (“Effect of agent on inhibition … by ST” below) [1] was “did not alter”.

With `Nc1nc2c(ncn2[C@@H]2O[C@@H]3COP(=O)(O)O[C@H]3[C@H]2O)c(=O)[nH]1` [cyclic GMP] the “Organization of actin cytoskeleton” value [2] was “prevented this organization” and the “Release of matrix metalloproteinase 9” value [3] was “precisely mimicked”.

In the case of “charybdotoxin (QFTNVSCTTSKECWSVCQRLHNTSRGKCMNKKCRCYS)”, the “Effect of agent on inhibition … by ST” value [1] is reported as “absence of charybdotoxin effect” and the “Effect of agent on inhibition … by ST” value ([1]; listed as CTX) is reported as “did not reverse”.

In the case of `COC(=O)[C@@]1(OC)C[C@H]2O[C@]1(C)n1c3ccccc3c3c4c(c5c6ccccc6n2c5c31)C(=O)N(C)C4` [KT5823], the Ki [4] is listed as 234 nM and the “Effect of agent on inhibition … by ST” value [1] is listed as “did not alter”.

In the case of `CCCCCCOC(=O)[C@]1(O)C[C@@H]2O[C@@]1(C)n1c3ccccc3c3c4c(c5c6ccccc6n2c5c31)C(=O)NC4` [KT5720], the Ki [5] is listed as 0.056 µM and the “Effect of agent on inhibition … by ST” value [1] is listed as “did not alter”.

For `Nc1nc2c(nc(Br)n2[C@@H]2O[C@@H]3COP(=O)(O)O[C@H]3[C@H]2O)c(=O)[nH]1` [8-br-cGMP], the “Induction of Ca2+-dependent K+ current (KCa), charybdotoxin-sensitive” value [6] was “induced”, the “Reversal potential derived from the induced current-voltage relationship” value [6] was about −70 mV and the “Induction of L-DLT-sensitive membrane current” value [6] was “induced an L-DLT-sensitive current”. The “Induction of L-DLT-sensitive membrane current” value ([6]; listed as 8-Br-cGMP) was “induces an L-DLT-sensitive current”, the “Induced current in the presence of [Ca2+]ext” value ([6]; control, 1.8 mM CaCl2, n=5) was 0.21±0.04 nA and the “Shift of the reversal potential ΔEm” value ([6]; ramp pulses, holding potential −40 mV, mean±SEM) was −25.8±4.6 mV. The “Influx of 45Ca2+ into colon cancer cells” value [7] was “induced influx”, the “Induced current after removal of [Ca2+]ext” value [8] was 0.07±0.04 nA and the “Inhibition of cell proliferation / DNA synthesis by 8-br-cGMP” value ([1]; 8-br-cGMP 5 mM) was “inhibited tumor cell DNA synthesis; also recorded: inhibition of cell proliferation”.

In the case of `NC(=Nc1ccccc1)NC(=O)c1nc(Cl)c(N)nc1N` [phenamil], the “Effect of agent on inhibition … by ST” value [1] is reported as “did not affect; also recorded: did not reverse”.

In the case of `Nc1ncnc2c1ncn2[C@@H]1O[C@@H]2CO[P@@](O)(=S)O[C@H]2[C@H]1O` [RP-cAMPs], the Ki [5] is listed as 10 µM and the “Effect of agent on inhibition … by ST” value [1] is listed as “did not alter”.

In the case of “uroguanylin: homologous ST receptor binding peptide produced locally in the intestine (NDDCELCVNVACTGCL; ends and bridges not checked; cysteine pairing not given here; UniProt Q16661 97-112, looked up)”, the “Inhibition of proliferation of cancer cells” value [9] is reported as “inhibit the proliferation” and the “Inhibition of proliferation of cancer cells” value [10] is reported as “inhibit the proliferation”.

For `CC(=O)OCOC(=O)CN(CC(=O)OCOC(C)=O)c1ccccc1OCCOc1ccccc1N(CC(=O)OCOC(C)=O)CC(=O)OCOC(C)=O` [BAPTA-AM], the “Effect of agent on inhibition … by ST” value [1] was “reversal; also recorded: abolished”.

For `C[C@H](CCC(=O)O)C[C@H](C)C[C@H](C)C(=O)/C=C(\O)[C@H](C)C[C@H](C)C/C=C/[C@@H](C)[C@@H](O)[C@@H](C)[C@@H](O)C[C@@H]1CC[C@@](C)([C@H]2CC[C@@](C)([C@@H](C)O)O2)O1` [Ionomycin], the “Effect on cell proliferation of agent on its own compared with ST” value ([1]; ionomycin 1 μM, ST 1 μM) was “mimicked”.

For `Nc1nc2c(nc(Sc3ccc(Cl)cc3)n2C2OC3COP(O)(=S)OC3C2O)c(=O)[nH]1` (centres unmarked) [RP8pCPT-cGMP], the Ki [4] is listed as 500 nM and the “Effect of agent on inhibition … by ST” value [1] is listed as “did not alter”.

For `O=C1CN(/N=C/c2ccc(-c3ccc([N+](=O)[O-])cc3)o2)C(O)=N1` [Dantrolene], the “Effect of agent on inhibition … by ST” value [1] was “did not reverse” and the “Effect of agent on inhibition … by ST” value ([1]; listed as dantrolene) was “did not affect”.
